Results on 19 compounds are retold here after patent EP4553077A1 (Kinoteck Therapeutics Co., Ltd, priority 2022, dated 2024).

By AUC(0-t) is commonly meant exposure summed from dosing to a finite time, without extrapolation to infinity. A lower AUC(0-t) goes with low exposure. Usually Cmax stands for the maximum level reached in the sampled fluid or tissue. One may read the Tmax as the time from dosing to the highest level. The half-life is the time needed for the level to fall by half in the phase considered. Higher therefore signals slow decline.

One series deals with SNU16 cells. Nature of the series: Proliferation inhibition, CCK-8 colorimetric method. In kind it is cell-based. How it is done: (§1) CCK-8 (Bimake/B34304) colorimetric method was used to detect the in vitro proliferation inhibitory effect of compounds on suspended or adherent cells in this experiment. The specific experimental steps were as follows: • 1) Cell plating: SNU16 and A204 tumor cells (cells from Shanghai Institute of Organic Chemistry, Chinese Academy of Sciences) in the logarithmic growth phase were digested and centrifuged for trypan blue counting, and the cells were seeded into a transparent 96 well plate at a density of 4000 cells/100 µ 1/well. […] The test compound and control compound stock solution were diluted with the corresponding culture medium required for cell culture (with or without solvent DMSO) to obtain a series of working solutions, with concentrations of twice the final concentration. The solvent DMSO contents in each concentration group were consistent with that of the solvent control group. The final concentration of A204 cells started at 10 µM and was diluted twice.
(§2) Calculation of cell survival rate: Cell survival rate (%)=[(As-Ac)/(Ab-Ac)] × 100%] (As: experimental well; Ab: Solvent control well; Ac: Blank well).
For orientation: Formazan colour is commonly taken as a measure of viable cells.

For the next series, the system named is A204 cells. The series is described as above. The format is cell-based. As to conditions: 72 h. How it is done: as §1, §2
The target of a further series is Ba/F3-TEL-FGFR2 (Homo sapiens, UniProt P21802+P41212). Nature of the series: Cell viability (proliferation inhibition) of Ba/F3 cells, CellTiter Glo. The settings on record: read-out: Ba/F3 cell FGFR2 (IC50 nM), 72 h. (In general: ATP-based viability assays read luminescence as a measure of living cells.)
Sequence of Ba/F3-TEL-FGFR2 (P21802 481-770 limits assumed, one chain of several): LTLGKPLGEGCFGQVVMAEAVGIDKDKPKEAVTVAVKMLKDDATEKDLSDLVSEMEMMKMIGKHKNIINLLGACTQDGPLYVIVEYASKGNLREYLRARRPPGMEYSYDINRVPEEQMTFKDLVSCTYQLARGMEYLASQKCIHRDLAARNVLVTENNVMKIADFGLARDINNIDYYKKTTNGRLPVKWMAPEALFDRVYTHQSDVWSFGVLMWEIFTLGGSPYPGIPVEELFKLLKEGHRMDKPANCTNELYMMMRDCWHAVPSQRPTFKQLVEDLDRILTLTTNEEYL
For a further series, the target named is Ba/F3-TEL-FGFR3 (Homo sapiens, UniProt P22607+P41212). The series is described as above. The settings on record: read-out: Ba/F3 cell FGFR3 (IC50 nM), 72 h.
Sequence of Ba/F3-TEL-FGFR3 (P22607 472-761 limits assumed, one chain of several): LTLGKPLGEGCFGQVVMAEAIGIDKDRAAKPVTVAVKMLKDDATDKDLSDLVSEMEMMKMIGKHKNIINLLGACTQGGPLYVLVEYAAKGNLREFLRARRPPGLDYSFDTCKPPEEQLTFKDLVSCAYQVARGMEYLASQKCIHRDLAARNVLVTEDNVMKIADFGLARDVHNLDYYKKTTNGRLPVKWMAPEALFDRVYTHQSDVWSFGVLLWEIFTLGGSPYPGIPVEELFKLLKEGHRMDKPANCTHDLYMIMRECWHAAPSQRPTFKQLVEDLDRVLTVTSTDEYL
A further series deals with Ba/F3-TEL-FGFR1 (Homo sapiens, UniProt P11362+P41212). Described as above. As to conditions: read-out: Ba/F3 cell FGFR1 (IC50 nM), 72 h.
Sequence of Ba/F3-TEL-FGFR1 (P11362 478-767 limits assumed, one chain of several): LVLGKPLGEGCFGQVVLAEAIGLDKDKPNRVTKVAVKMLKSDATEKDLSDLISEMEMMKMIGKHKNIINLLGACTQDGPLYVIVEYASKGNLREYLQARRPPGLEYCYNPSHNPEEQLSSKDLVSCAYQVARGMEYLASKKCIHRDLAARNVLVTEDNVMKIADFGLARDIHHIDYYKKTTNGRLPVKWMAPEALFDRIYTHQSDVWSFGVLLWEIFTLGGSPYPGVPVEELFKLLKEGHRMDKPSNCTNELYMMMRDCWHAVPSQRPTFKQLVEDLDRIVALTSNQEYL
The nature of series [1]: Pharmacokinetic test in rats. In kind it is in vivo, male SD rats. As to conditions: rat, plasma, oral gavage administration, 10 mg/kg. As for the experimental part: Rat pharmacokinetic experiments were performed using male SD rats, 180-220g, provided by Beijing Vital River Laboratory Animal Technology Co., Ltd. 3 rats that were fasted overnight were taken, and administered orally by gavage (10 mg/kg). Blood samples were collected before administration, as well as 5, 15, 30 min and 1, 2, 4, 6, 8, 24 h after administration; another 3 rats were taken and administered intravenously (1 mg/kg), blood samples were collected before administration, as well as 5, 15, 30 min and 1, 2, 4, 6, 8, 24 h after administration. Blood sample was centrifuged at 6800g, 2-8 °C for 6 min, and plasma was collected, and stored at -80 °C. Plasma of each time point was taken, 10 times the amount of 50% methanol acetonitrile solution containing internal standard was added, and mixed by vortex for 5 min, centrifuged at 18000 rpm at 4 °C for 10 min, and the supernatant was taken directly for LC-MS/MS analysis. The main pharmacokinetic parameters were analyzed using WinNonlin8.2 software for non compartmental model analysis. Table 3: pharmacokinetic test in rats results of test compounds

As for `CCN1CCN(c2ccc(Nc3cc(N(C)C(=O)Nc4c(Cl)c(OC)cc(OC)c4Cl)ncn3)cc2)CC1` [BGJ398, reference compound], the IC50 worked out at 4.3 nM in the series with SNU16 cells (Homo sapiens, SNU-16, 72 h) and 100 nM with A204 cells (Homo sapiens).
`C=C(C)C(=O)Nc1ccc(-c2c(-c3ccc(N=S4(=O)CCCCC4)c(F)c3)c3c(N)ncnc3n2C)c(F)c1` [Compound 7]: the IC50 was found to be 2.4 nM on Ba/F3-TEL-FGFR2, 545 nM at Ba/F3-TEL-FGFR3 and 627 nM at Ba/F3-TEL-FGFR1.
On to `C=C(C)C(=O)Nc1ccc(-c2c(-c3ccc(N=S4(=O)CCC4)cc3)c3c(N)ncnc3n2C)c(F)c1` [Compound 8], for which the IC50 was found to be 0.7 nM on Ba/F3-TEL-FGFR2; 600 nM at Ba/F3-TEL-FGFR1; 1.34 nM with SNU16 cells (Homo sapiens, SNU-16, 72 h); 618 nM with A204 cells (Homo sapiens). Also, in series [1], the AUC(0-t) stood at 630 ng·h/mL. In addition, the Cmax in series [1] is 352 ng/mL. The Tmax in series [1] worked out at 15 min. The half-life in series [1] was 109 min.
For the compound `C=C(F)C(=O)Nc1ccc(-c2c(-c3ccc(N=S4(=O)CCCC4)c(F)c3)c3c(N)ncnc3n2C)cc1` [Compound 21, N-(4-(4-amino-5-(3-fluoro-4-((1-oxotetrahydro-1 λ^6-thiophene-1-ylidene)amino)phenyl) -7-methyl-7H-pyrrolo [2,3-d]pyrimidin-6-yl)phenyl) -2-fluoroacrylamide], the IC50 at Ba/F3-TEL-FGFR2 was 0.8 nM; with SNU16 cells (Homo sapiens, SNU-16, 72 h), 1.72 nM; in the series with A204 cells (Homo sapiens), 333 nM.
`C=C(C)C(=O)Nc1ccc(-c2c(-c3ccc(N=S4(=O)CCCC4)c(F)c3)c3c(N)ncnc3n2C)c(C)c1` [Compound 22, N-(4-(4-amino-5-(3-fluoro-4-((1-oxotetrahydro-1 λ^6-thiophene-1-ylidene)amino)phenyl) -7-methyl-7H-pyrrolo [2,3-d]pyrimidin-6-yl) -3-methylphenyl) methacrylamide]: the IC50 amounted to 2.7 nM on Ba/F3-TEL-FGFR2; 717 nM at Ba/F3-TEL-FGFR1; 4.97 nM in the series with SNU16 cells (Homo sapiens, SNU-16, 72 h); 1610 nM in the series on A204 cells (Homo sapiens).
As for `C=C(C)C(=O)Nc1ccc(-c2c(-c3ccc(N=S(=O)(N(C)C)C(F)(F)F)cc3)c3c(N)ncnc3n2C)c(F)c1` (stereo not drawn) [Compound 32], the IC50 at Ba/F3-TEL-FGFR2 was 0.4 nM; in the series on SNU16 cells (72 h) it was 9.56 nM; in the series on A204 cells, 2250 nM.
On to `CC#CC(=O)Nc1ccc(-c2c(-c3ccc(N=S4(=O)CCCCC4)c(F)c3)c3c(N)ncnc3n2C)cc1` [Compound 35, N-(4-(4-amino-5-(3-fluoro-4-((1-oxotetrahydro-2H-1 λ^6-thiopyran-1-ylidene)amino)phenyl) -7-methyl-7H-pyrrolo [2,3-d]pyrimidin-6-yl)phenyl) but-2-ynamide], for which the IC50 on Ba/F3-TEL-FGFR2 turned out to be 4.4 nM; with SNU16 cells (Homo sapiens, SNU-16, 72 h) it was 4.91 nM; with A204 cells (Homo sapiens), 406 nM.
As for `C=C(C)C(=O)Nc1ccc(-c2c(-c3ccc(N=S4(=O)CC(C)(C)C4)cc3)c3c(N)ncnc3n2C)c(F)c1` [Compound 63], the IC50 on Ba/F3-TEL-FGFR2 came out at 1.1 nM. The IC50 at Ba/F3-TEL-FGFR1 came out at 396 nM. In series [1], the AUC(0-t) amounted to 1700 ng·h/mL, the peak level (Cmax) was 556 ng/mL, the Tmax turned out to be 30 min and the half-life was 155 min.
For `C=C(F)C(=O)Nc1ccc(-c2c(-c3ccc(N=S4(=O)CCCCC4)cc3)c3c(N)ncnc3n2C)cc1` [Compound 68, N-(4-(4-amino-7-methyl-5-(4-((1-oxotetrahydro-2H-1 λ^6-thiopyran-1-ylidene)amino)phenyl)-7H-pyrrolo[2,3-d]pyrimidin-6-yl)phenyl)-2-fluoroacrylamide], the IC50 is 0.5 nM at Ba/F3-TEL-FGFR2; 1.65 nM in the series with SNU16 cells (Homo sapiens, SNU-16, 72 h); 267 nM with A204 cells (Homo sapiens).
As for `C=C(C)C(=O)Nc1ccc(-c2c(-c3ccc(N=S4(=O)CCC4)c(F)c3)c3c(N)ncnc3n2C)c(Cl)c1` [Compound 74, N-(4-(4-amino-5-(3-fluoro-4-(1-oxo-1λ^6-thietan-1-imino)phenyl) -7-methyl-7H-pyrrolo[2,3-d]pyrimidin-6-yl)-3-chlorophenyl)methacrylamide], the IC50 worked out at 0.5 nM at Ba/F3-TEL-FGFR2; 300 nM on Ba/F3-TEL-FGFR1; 1.19 nM in the series with SNU16 cells (Homo sapiens, SNU-16, 72 h); 595 nM in the series with A204 cells (Homo sapiens).
Take `[2H]C([2H])([2H])n1c(-c2cc(C)c(NC(=O)C(=C)C)cc2Cl)c(-c2ccc(N=S3(=O)CCCC3)c(F)c2)c2c(N)ncnc21` [Compound 90, N-(4-(4-amino-5-(3-fluoro-4-((1-tetrahydro-1λ^6-thiophene-1-ylidene)amino)phenyl) -7-(methyl-d3) -7H-pyrrolo [2,3-d]pyrimidin-6-yl) -5-chloro-2-methylphenyl) methacrylamide]: the IC50 came out at 3.6 nM at Ba/F3-TEL-FGFR2 and 174 nM on Ba/F3-TEL-FGFR3.
With `[2H]C([2H])([2H])n1c(-c2ccc(NC(=O)C(=C)C)cc2Cl)c(-c2ccc(N=S3(=O)CCC3)c(Cl)c2)c2c(N)ncnc21` [Compound 95, N-(4-(4-amino-5-(3-chloro-4-((1-oxo-1 λ^6-thietan-1-ylidene)amino)phenyl) -7-(methyl-d3) -7H-pyrrolo [2,3-d]pyrimidin-6-yl) -3-chlorophenyl) methacrylamide], the figures for the IC50 on Ba/F3-TEL-FGFR2 and at Ba/F3-TEL-FGFR1 were 0.7 nM and 484 nM, respectively.
Turning to `[2H]C([2H])([2H])n1c(-c2ccc(NC(=O)C(=C)C)cc2F)c(-c2ccc(N=S3(=O)CCC3)c(F)c2)c2c(N)ncnc21` [Compound 97, N-(4-(4-amino-5-(3-fluoro-4-((1-oxo-1 λ^6-thiophene-1-ylidene)amino)phenyl) -7-(methyl-d3) -7H-pyrrole [2,3-d]pyrimidin-6-yl) -3-fluorophenyl) methacrylamide], the IC50 on Ba/F3-TEL-FGFR2 was 1.9 nM; on Ba/F3-TEL-FGFR1, 480 nM; in the series on SNU16 cells (Homo sapiens, SNU-16, 72 h), 2.66 nM; with A204 cells (Homo sapiens), 764 nM.
In the same order, the values of `[2H]C([2H])([2H])n1c(-c2ccc(NC(=O)C(=C)C)cc2F)c(-c2ccc(N=S3(=O)C=CC=C3)cc2)c2c(N)ncnc21` [Compound 98, N-(4-(4-amino-7-(methyl-d3) -5-(4-((1-oxo-1 λ^6-thiophene-1-ylidene)amino)phenyl) -7H-pyrrolo [2,3-d]pyrimidin-6-yl) -3-fluorophenyl) methacrylamide] are 0.6 nM, 416 nM, 1.81 nM and 845 nM.
Turning to `C=C(C)C(=O)Nc1ccc(-c2c(-c3ccc(N=S(=O)(CC)CC)cc3)c3c(N)ncnc3n2C)c(Cl)c1` [Compound 102], the IC50 at Ba/F3-TEL-FGFR2 was 0.6 nM; in the series on SNU16 cells (Homo sapiens, SNU-16, 72 h), 2.63 nM; in the series on A204 cells (Homo sapiens), 502 nM.
On to `C=C(C)C(=O)Nc1ccc(-c2c(-c3ccc(N=S4(=O)CCC4)c(Cl)c3)c3c(N)ncnc3n2C)c(F)c1` [Compound 104], for which the IC50 worked out at 0.9 nM at Ba/F3-TEL-FGFR2; 640 nM on Ba/F3-TEL-FGFR1; 5.51 nM with SNU16 cells (Homo sapiens, SNU-16, 72 h); 1020 nM in the series on A204 cells (Homo sapiens).
On to `C=C(C)C(=O)Nc1ccc(-c2c(-c3ccc(N=S(C)(C)=O)cc3)c3c(N)ncnc3n2C)c(F)c1` [Compound 107], for which the IC50 on Ba/F3-TEL-FGFR2 turned out to be 15.6 nM; on Ba/F3-TEL-FGFR1, 3630 nM.
As for `[2H]C([2H])([2H])n1c(-c2ccc(NC(=O)C(=C)C)cc2F)c(-c2ccc(N=S(=O)(CC)CC)cc2)c2c(N)ncnc21` [Compound 109], the IC50 at Ba/F3-TEL-FGFR2 came out at 4.5 nM; in the series on SNU16 cells (Homo sapiens, SNU-16, 72 h), 9.38 nM; in the series on A204 cells (Homo sapiens), 1040 nM.
Turning to `C=C(C)C(=O)Nc1ccc(-c2c(-c3ccc(Oc4nccc(C)n4)c(F)c3)c3c(N)ncnc3n2C)cc1` [Control compound I, reference compound], in series [1] (male, SD), the AUC(0-t) came to 606 ng·h/mL, the highest level (Cmax) was 141 ng/mL, the Tmax worked out at 40.2 min and the half-life is 51 min. The compound further showed an IC50 in the series on SNU16 cells (Homo sapiens, SNU-16, 72 h) of 13.2 nM. The same compound registered an IC50 with A204 cells (Homo sapiens) of 3220 nM.
